Measurements published in ChEMBL document CHEMBL1146849, “Identification of a lead pharmacophore for the development of potent nuclear receptor modulators as anticancer and X syndrome disease therapeutic agents” (Bioorg Med Chem Lett, 2006).
Calls of active or inactive are those of the source. The rule behind the calls is not given here.

How the values were obtained:
[1] = molecular target: T1, Bile acid receptor (Homo sapiens) (UniProt Q96RI1); experiment: Agonist activity at FXR in HepG2 cells by luciferase activity relative to CDCA at 10 uM; format: functional, cell-based
T1 sequence (whole entry): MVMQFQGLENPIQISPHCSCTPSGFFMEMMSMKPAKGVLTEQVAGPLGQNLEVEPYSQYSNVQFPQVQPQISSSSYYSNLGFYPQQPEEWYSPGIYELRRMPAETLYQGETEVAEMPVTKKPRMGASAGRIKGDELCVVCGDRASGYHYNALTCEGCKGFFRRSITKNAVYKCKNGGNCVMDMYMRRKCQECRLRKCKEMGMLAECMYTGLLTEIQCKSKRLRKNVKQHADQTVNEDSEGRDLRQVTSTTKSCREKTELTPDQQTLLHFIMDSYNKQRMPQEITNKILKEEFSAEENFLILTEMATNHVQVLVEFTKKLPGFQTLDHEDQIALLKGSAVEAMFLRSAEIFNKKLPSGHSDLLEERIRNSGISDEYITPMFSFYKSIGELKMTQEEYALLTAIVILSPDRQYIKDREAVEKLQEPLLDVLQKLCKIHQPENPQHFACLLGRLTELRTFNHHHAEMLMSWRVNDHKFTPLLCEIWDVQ

[2] = system: Androgen receptor (Homo sapiens), P10275 [T878A]; experiment: Agonist activity at human androgen receptor T877A mutant relative to control; format: functional
Androgen receptor (Homo sapiens), P10275 [T878A], sequence (P10275 whole entry T878A): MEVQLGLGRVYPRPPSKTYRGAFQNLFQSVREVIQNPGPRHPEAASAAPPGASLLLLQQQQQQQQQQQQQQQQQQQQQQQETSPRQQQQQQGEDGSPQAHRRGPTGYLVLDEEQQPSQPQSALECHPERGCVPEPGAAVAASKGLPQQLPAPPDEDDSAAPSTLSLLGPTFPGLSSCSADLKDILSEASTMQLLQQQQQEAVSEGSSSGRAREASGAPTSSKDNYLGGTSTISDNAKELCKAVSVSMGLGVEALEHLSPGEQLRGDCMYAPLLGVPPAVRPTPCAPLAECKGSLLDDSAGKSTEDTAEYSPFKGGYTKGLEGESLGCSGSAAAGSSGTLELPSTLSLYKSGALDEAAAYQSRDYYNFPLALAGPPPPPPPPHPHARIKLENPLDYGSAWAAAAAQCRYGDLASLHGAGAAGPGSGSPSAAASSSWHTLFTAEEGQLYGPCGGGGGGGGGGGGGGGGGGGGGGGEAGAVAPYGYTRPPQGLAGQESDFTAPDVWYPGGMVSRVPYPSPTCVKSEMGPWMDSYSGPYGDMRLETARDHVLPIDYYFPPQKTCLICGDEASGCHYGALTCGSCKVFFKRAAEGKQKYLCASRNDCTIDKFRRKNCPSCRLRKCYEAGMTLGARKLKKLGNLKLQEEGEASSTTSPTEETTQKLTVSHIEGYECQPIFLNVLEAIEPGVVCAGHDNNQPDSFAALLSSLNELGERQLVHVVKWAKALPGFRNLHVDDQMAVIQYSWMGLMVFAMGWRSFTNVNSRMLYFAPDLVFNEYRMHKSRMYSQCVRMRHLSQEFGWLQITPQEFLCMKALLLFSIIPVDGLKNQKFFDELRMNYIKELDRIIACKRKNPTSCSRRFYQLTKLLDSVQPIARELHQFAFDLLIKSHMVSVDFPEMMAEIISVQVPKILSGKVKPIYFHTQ

Row | SMILES | Activity [1] | Activity [2]
1 | Cc1ccc(C(=O)N2Cc3ccccc3C[C@H]2CO)cc1F | Active | 
2 | Cc1cc(C)cc(C(=O)N2Cc3ccccc3C[C@H]2CO)c1 |  | inactive
3 | O=C(c1ccc(C(O)(C(F)(F)F)C(F)(F)F)cc1)N1Cc2ccccc2C[C@H]1CO |  | inactive
